Values quoted from earlier work, collected in patent US20170027865A1, “Dry Pharmaceutical Compositions for Topical Delivery of Oral Medications, Nasal Delivery and to Treat Ear Disorders” (CMPD LICENSING LLC, priority 2013, published 2017).

Key:
Bacteroides fragilis = conditions: Gram: anaer
Clostridium difficile = conditions: Gram: anaer
Clostridium perfringens = conditions: Clostridium perfringens; Gram: anaer
Chlamydia pneumoniae = conditions: Gram: n/a
Chlamydia psittaci = conditions: Chlamydia psittaci; Gram: n/a
Chlamydia trachomatis = conditions: Gram: n/a
Mycoplasma pneumoniae = conditions: Gram: n/a
Acinetobacter baumannii = conditions: Gram: neg
[1] = tested on: Acinetobacter calcoaceticus; conditions: Gram: neg
Acinetobacter lwoffii = conditions: Gram: neg
Bartonella bacilliformis = conditions: Gram: neg
Bordetella pertussis = conditions: Gram: neg
Brucella species = conditions: Brucella species; Gram: neg
Campylobacter jejuni = conditions: Gram: neg
Citrobacter diversus = conditions: Gram: neg
Citrobacter freundii = conditions: Gram: neg
Enterobacter aerogenes = conditions: Gram: neg
Enterobacter cloacae = conditions: Gram: neg
Enterobacter sakazakii = conditions: Gram: neg
Escherichia coli = conditions: Gram: neg
Francisella tularensis = conditions: Francisella tularensis; Gram: neg
Haemophilus influenzae = conditions: Gram: neg
[2] = tested on: Klebsiella (Calymmatobacterium) granulomatis; conditions: Gram: neg
Klebsiella oxytoca = conditions: Gram: neg
Klebsiella pneumoniae = conditions: Gram: neg
Legionella pneumophila = conditions: Legionella pneumophila; Gram: neg
Moraxella catarrhalis = conditions: Gram: neg
Morganella morganii = conditions: Gram: neg
Neisseria meningitidis = conditions: Gram: neg
Proteus mirabilis = conditions: Gram: neg
Proteus vulgaris = conditions: Gram: neg
Providencia rettgeri = conditions: Gram: neg
Providencia stuartii = conditions: Gram: neg
Pseudomonas aeruginosa = conditions: Gram: neg
Pseudomonas fluorescens = conditions: Gram: neg
Rickettsiae = conditions: Rickettsiae; Gram: neg
Serratia marcescens = conditions: Gram: neg
Vibrio cholerae = conditions: Gram: neg
Corynebacterium jeikeium = conditions: Gram: pos
Enterococcus faecalis = conditions: Gram: pos
Enterococcus faecium = conditions: Gram: pos
[3] = tested on: Methicillin Resistant Staph aureus (MRSA); conditions: Gram: pos
[4] = tested on: Staphylococcus aureus (MSSA); conditions: Gram: pos
[5] = tested on: Staphylococcus epidermidis; conditions: Gram: pos
Streptococcus agalactiae = conditions: Gram: pos
Streptococcus pneumoniae = conditions: Gram: pos
Streptococcus pyogenes = conditions: Gram: pos
Haemophilus ducreyi = conditions: Gram: neg
Neisseria gonorrhoeae = conditions: Gram: neg
Shigella boydii = conditions: Gram: neg
Shigella dysenteriae = conditions: Gram: neg
Shigella flexneri = conditions: Gram: neg
Shigella sonnei = conditions: Gram: neg
Yersinia pestis = conditions: Yersinia pestis; Gram: neg
[6] = tested on: Corynebacterium urealyticum; conditions: Gram: pos
Diphtheroids = conditions: Gram: pos
Peptostreptococcus = conditions: Gram: pos
[7] = tested on: Viridans group streptococci; conditions: Gram: pos

## CC[C@H]1OC(=O)[C@H](C)[C@@H](O[C@H]2C[C@@](C)(OC)[C@@H](O)[C@H](C)O2)[C@H](C)[C@@H](O[C@@H]2O[C@H](C)C[C@H](N(C)C)[C@H]2O)[C@](C)(O)C[C@@H](C)CN(C)[C@H](C)[C@@H](O)[C@]1(C)O [Azithromycin, azithromycin]
Bacteroides fragilis
  Expected coverage: no
Clostridium difficile
  Expected coverage: no
Clostridium perfringens
  Expected coverage: no
Chlamydia pneumoniae
  Expected coverage: yes
Chlamydia psittaci
  Expected coverage: yes
Chlamydia trachomatis
  Expected coverage: yes
Mycoplasma pneumoniae
  Expected coverage: yes
Acinetobacter baumannii
  Expected coverage: no
[1]
  Expected coverage: no
Acinetobacter lwoffii
  Expected coverage: no
Bartonella bacilliformis
  Expected coverage: yes
Bordetella pertussis
  Expected coverage: yes
Brucella species
  Expected coverage: no
Campylobacter jejuni
  Expected coverage: yes
Citrobacter diversus
  Expected coverage: no
Citrobacter freundii
  Expected coverage: no
Enterobacter aerogenes
  Expected coverage: no
Enterobacter cloacae
  Expected coverage: no
Enterobacter sakazakii
  Expected coverage: no
Escherichia coli
  Expected coverage: no
Francisella tularensis
  Expected coverage: no
Haemophilus influenzae
  Expected coverage: yes
[2]
  Expected coverage: no
Klebsiella oxytoca
  Expected coverage: no
Klebsiella pneumoniae
  Expected coverage: no
Legionella pneumophila
  Expected coverage: yes
Moraxella catarrhalis
  Expected coverage: yes
Morganella morganii
  Expected coverage: no
Neisseria meningitidis
  Expected coverage: yes
Proteus mirabilis
  Expected coverage: no
Proteus vulgaris
  Expected coverage: no
Providencia rettgeri
  Expected coverage: no
Providencia stuartii
  Expected coverage: no
Pseudomonas aeruginosa
  Expected coverage: no
Pseudomonas fluorescens
  Expected coverage: no
Rickettsiae
  Expected coverage: yes
Serratia marcescens
  Expected coverage: no
Vibrio cholerae
  Expected coverage: yes
Corynebacterium jeikeium
  Expected coverage: no
Enterococcus faecalis
  Expected coverage: no
Enterococcus faecium
  Expected coverage: no
[3]
  Expected coverage: no
[4]
  Expected coverage: yes
[5]
  Expected coverage: yes
Streptococcus agalactiae
  Expected coverage: yes
Streptococcus pneumoniae
  Expected coverage: yes
Streptococcus pyogenes
  Expected coverage: yes

## C[C@@H]1[C@H](O)[C@@H](C)/C=C/C=C/CC/C=C/C=C/C=C/C=C/C(O[C@H]2O[C@H](C)[C@@H](O)[C@H](N)[C@@H]2O)CC2O[C@](O)(CC(O)C(O)CCC(O)CC(O)CC(O)CC(=O)O[C@H]1C)CC(O)C2C(=O)O (stereo partly drawn) [Nystatin, nystatin]
Candida species
  Expected coverage: yes

## NC[C@H]1O[C@H](O[C@H]2[C@H](O)[C@@H](O[C@H]3O[C@H](CO)[C@@H](O)[C@H](N)[C@H]3O)[C@H](N)C[C@@H]2N)[C@H](N)C[C@@H]1O [Tobramycin, tobramycin]
Bacteroides fragilis
  Expected coverage: no
Clostridium difficile
  Expected coverage: no
Clostridium perfringens
  Expected coverage: no
Chlamydia pneumoniae
  Expected coverage: no
Chlamydia psittaci
  Expected coverage: no
Chlamydia trachomatis
  Expected coverage: no
Mycoplasma pneumoniae
  Expected coverage: no
Acinetobacter baumannii
  Expected coverage: no
[1]
  Expected coverage: no
Acinetobacter lwoffii
  Expected coverage: no
Bordetella pertussis
  Expected coverage: no
Campylobacter jejuni
  Expected coverage: yes
Citrobacter diversus
  Expected coverage: yes
Citrobacter freundii
  Expected coverage: yes
Enterobacter aerogenes
  Expected coverage: yes
Enterobacter cloacae
  Expected coverage: yes
Enterobacter sakazakii
  Expected coverage: yes
Escherichia coli
  Expected coverage: yes
Haemophilus ducreyi
  Expected coverage: yes
Haemophilus influenzae
  Expected coverage: yes
[2]
  Expected coverage: yes
Klebsiella oxytoca
  Expected coverage: yes
Klebsiella pneumoniae
  Expected coverage: yes
Legionella pneumophila
  Expected coverage: no
Moraxella catarrhalis
  Expected coverage: yes
Neisseria gonorrhoeae
  Expected coverage: no
Neisseria meningitidis
  Expected coverage: no
Proteus mirabilis
  Expected coverage: yes
Proteus vulgaris
  Expected coverage: yes
Pseudomonas aeruginosa
  Expected coverage: yes
Pseudomonas fluorescens
  Expected coverage: yes
Serratia marcescens
  Expected coverage: yes
Shigella boydii
  Expected coverage: yes
Shigella dysenteriae
  Expected coverage: yes
Shigella flexneri
  Expected coverage: yes
Shigella sonnei
  Expected coverage: yes
Vibrio cholerae
  Expected coverage: no
Yersinia pestis
  Expected coverage: yes
Corynebacterium jeikeium
  Expected coverage: no
[6]
  Expected coverage: no
Diphtheroids
  Expected coverage: no
Enterococcus faecalis
  Expected coverage: no
Enterococcus faecium
  Expected coverage: no
[3]
  Expected coverage: no
Peptostreptococcus
  Expected coverage: no
[4]
  Expected coverage: no
[5]
  Expected coverage: no
Streptococcus agalactiae
  Expected coverage: no
Streptococcus pneumoniae
  Expected coverage: no
Streptococcus pyogenes
  Expected coverage: no
[7]
  Expected coverage: no
